In this test the target is T1, Cf-SGBP-CBMxxIV (Christiangramia forsetii, UniProt A0M709).
T1 sequence (A0M709 740-904): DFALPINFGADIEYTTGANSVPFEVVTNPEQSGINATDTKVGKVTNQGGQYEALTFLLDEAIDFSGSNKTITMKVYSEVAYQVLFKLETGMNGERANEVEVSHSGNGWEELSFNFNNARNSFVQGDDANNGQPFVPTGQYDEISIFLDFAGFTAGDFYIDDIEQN
Kind of test: isothermal titration calorimetry. The format is binding. The note with it: 293.15 K, pH 7.8, 10 mM MOPS, 100 mM NaCl; single-site model.

Structures are written as SMILES.

For the molecule `OC[C@H]1O[C@@H](O[C@@H]2[C@@H](O)[C@H](O[C@@H]3[C@@H](O)[C@H](O[C@@H]4[C@@H](O)[C@H](O[C@H]5[C@H](O)[C@@H](CO)OC(O)[C@@H]5O)O[C@H](CO)[C@H]4O)O[C@H](CO)[C@H]3O)O[C@H](CO)[C@H]2O)[C@H](O)[C@@H](O)[C@@H]1O` (some centres unmarked) [DP5, laminaripentaose], the Ka is 1.39 (± 0.07) x10^4.

Take `OC[C@H]1O[C@@H](O[C@@H]2[C@@H](O)[C@H](O[C@@H]3[C@@H](O)[C@H](O[C@@H]4[C@@H](O)[C@H](O[C@@H]5[C@@H](O)[C@H](O[C@@H]6[C@@H](O)[C@H](O[C@H]7[C@H](O)[C@@H](CO)OC(O)[C@@H]7O)O[C@H](CO)[C@H]6O)O[C@H](CO)[C@H]5O)O[C@H](CO)[C@H]4O)O[C@H](CO)[C@H]3O)O[C@H](CO)[C@H]2O)[C@H](O)[C@@H](O)[C@@H]1O` (some centres unmarked) [DP7, laminariheptaose]: the Ka is on record as 1.87 (± 0.17) x10^4.

The record behind these values is paper doi:10.1101/2023.09.07.556657v1 (biorxiv, 2023).
